Measurements from US20230065740A1, “CYCLIN-DEPENDENT KINASE INHIBITORS” (SPV THERAPEUTICS INC., priority 2018, published 2023).

Columns and labels:
CDK4-CYCLIND1 = CDK4-CYCLIND1 (Homo sapiens, UniProt P11802); assay: Microfluidic LabChip kinase inhibition assay, CDK4-CyclinD1; settings: CDK4 IC50 (μM), Table 2; 200 μM ATP, 1 nM enzyme
CDK6-CYCLIND3 = molecular target: T1, CDK6-CYCLIND3 (Homo sapiens, UniProt Q00534); assay: Microfluidic LabChip kinase inhibition assay, CDK6-CyclinD3; format: biochemical; settings: Table 2; 300 μM ATP, 2 nM enzyme; read-out: CDK6 IC50
T1 construct: purchased Carna
T1 sequence (Q00534 whole entry): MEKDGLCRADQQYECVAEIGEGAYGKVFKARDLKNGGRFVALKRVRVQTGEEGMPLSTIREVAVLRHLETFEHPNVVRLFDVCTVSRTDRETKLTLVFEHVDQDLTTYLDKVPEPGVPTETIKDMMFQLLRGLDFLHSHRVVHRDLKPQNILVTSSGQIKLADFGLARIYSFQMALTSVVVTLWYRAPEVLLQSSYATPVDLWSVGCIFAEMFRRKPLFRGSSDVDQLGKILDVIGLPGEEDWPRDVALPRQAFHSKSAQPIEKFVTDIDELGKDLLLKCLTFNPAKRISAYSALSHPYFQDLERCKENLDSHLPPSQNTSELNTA
T1 sequence (P30281 whole entry partner): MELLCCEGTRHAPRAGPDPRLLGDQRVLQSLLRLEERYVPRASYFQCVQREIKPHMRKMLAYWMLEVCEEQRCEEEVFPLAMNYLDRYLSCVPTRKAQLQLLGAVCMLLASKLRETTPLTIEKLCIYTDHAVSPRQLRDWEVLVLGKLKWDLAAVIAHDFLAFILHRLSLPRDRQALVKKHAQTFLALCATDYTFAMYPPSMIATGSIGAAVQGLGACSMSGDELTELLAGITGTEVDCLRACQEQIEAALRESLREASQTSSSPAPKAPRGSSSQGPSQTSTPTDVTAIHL

Sequence of CDK4-CYCLIND1 (P11802 whole entry): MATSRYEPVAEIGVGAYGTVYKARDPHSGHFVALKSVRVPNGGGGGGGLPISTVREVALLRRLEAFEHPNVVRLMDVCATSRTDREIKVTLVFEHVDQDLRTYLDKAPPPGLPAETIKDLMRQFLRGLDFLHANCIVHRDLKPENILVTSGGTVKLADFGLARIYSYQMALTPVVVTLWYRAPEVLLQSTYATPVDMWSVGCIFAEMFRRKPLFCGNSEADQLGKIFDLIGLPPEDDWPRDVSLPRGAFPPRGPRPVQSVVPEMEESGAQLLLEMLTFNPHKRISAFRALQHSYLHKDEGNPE
Sequence of CDK4-CYCLIND1 (P24385 whole entry partner): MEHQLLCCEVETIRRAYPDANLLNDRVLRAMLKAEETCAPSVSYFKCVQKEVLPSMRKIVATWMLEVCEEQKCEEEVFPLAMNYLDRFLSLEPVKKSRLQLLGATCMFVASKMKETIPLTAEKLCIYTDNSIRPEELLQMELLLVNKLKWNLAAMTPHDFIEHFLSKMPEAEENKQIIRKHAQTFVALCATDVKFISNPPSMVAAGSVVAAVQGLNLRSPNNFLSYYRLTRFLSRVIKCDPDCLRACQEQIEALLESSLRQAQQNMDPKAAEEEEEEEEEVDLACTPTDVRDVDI

CC(C)N1CCN(c2ccc(Nc3ncc4c(n3)N(C3CCCC3)C3(CC(=O)N(C)C3=O)C4)cc2F)CC1 (stereo not drawn) [Compound C73, 7′-cyclopentyl-2′-((3-fluoro-4-(4-isopropylpiperazin-1-yl)phenyl)amino)-1-methyl-5′,7′-dihydrospiro[pyrrolidine-3,6′-pyrrolo[2,3-d]pyrimidine]-2,5-dione]
IC50 (CDK4-CYCLIND1): 1.94 µM
IC50 (CDK6-CYCLIND3): 9740 nM

O=C1CC2(Cc3cnc(Nc4ccc(N5CCNCC5)cn4)nc3N2C2CCCC2)C(=O)N1 (stereo not drawn) [Compound C74, 7′-cyclopentyl-2′-((5-(piperazin-1-yl)pyridin-2-yl)amino)-5′,7′-dihydrospiro[pyrrolidine-3,6′-pyrrolo[2,3-d]pyrimidine]-2,5-dione]
IC50 (CDK4-CYCLIND1): 22.7 µM
IC50 (CDK6-CYCLIND3): 84500 nM

CN1CCN(c2ccc(Nc3ncc4c(n3)N(C3CCCC3)C3(CC(=O)NC3=O)C4)nc2)CC1 (stereo not drawn) [Compound C75, 7′-cyclopentyl-2′-((5-(4-methylpiperazin-1-yl)pyridin-2-yl)amino)-5′,7′-dihydrospiro[pyrrolidine-3,6′-pyrrolo[2,3-d]pyrimidine]-2,5-dione]
IC50 (CDK4-CYCLIND1): 0.0203 µM
IC50 (CDK6-CYCLIND3): 34.8 nM

CC(C)N1CCN(c2ccc(Nc3ncc4c(n3)N(C3CCCC3)C3(CC(=O)NC3=O)C4)nc2)CC1 (stereo not drawn) [Compound C76, 7′-cyclopentyl-2′-((5-(4-isopropylpiperazin-1-yl)pyridin-2-yl)amino)-5′,7′-dihydrospiro[pyrrolidine-3,6′-pyrrolo[2,3-d]pyrimidine]-2,5-dione]
IC50 (CDK4-CYCLIND1): 0.103 µM
IC50 (CDK6-CYCLIND3): 139 nM

O=C1CC2(Cc3cnc(Nc4ccc(N5CCNCC5)cc4)nc3N2C2CCCC2)C(=O)N1 (stereo not drawn) [Compound C77, 7′-cyclopentyl-2′-((4-(piperazin-1-yl)phenyl)amino)-5′,7′-dihydrospiro[pyrrolidine-3,6′-pyrrolo[2,3-d]pyrimidine]-2,5-dione]
IC50 (CDK4-CYCLIND1): 0.0251 µM
IC50 (CDK6-CYCLIND3): 131 nM

CN1CCN(c2ccc(Nc3ncc4c(n3)N(C3CCCC3)C3(CC(=O)NC3=O)C4)cc2)CC1 (stereo not drawn) [Compound C78, 7-cyclopentyl-2′-((4(4-methylpiperazin-1-yl)phenyl)amino)-5′,7′-dihydrospiro[pyrrolidine-3,6′-pyrrolo[2,3-d]pyrimidine]-2,5-dione]
IC50 (CDK4-CYCLIND1): 0.0667 µM
IC50 (CDK6-CYCLIND3): 350 nM

CC(C)N1CCN(c2ccc(Nc3ncc4c(n3)N(C3CCCC3)C3(CC(=O)NC3=O)C4)cc2)CC1 (stereo not drawn) [Compound C79, 7′-cyclopentyl-2′-((4-(4-isopropylpiperazin-1-yl)phenyl)amino)-5′,7′-dihydrospiro[pyrrolidine-3,6′-pyrrolo[2,3-d]pyrimidine]-2,5-dione]
IC50 (CDK4-CYCLIND1): 0.021 µM
IC50 (CDK6-CYCLIND3): 130 nM

O=C1CC2(Cc3cnc(Nc4ccc(N5CCNCC5)c(F)c4)nc3N2C2CCCC2)C(=O)N1 (stereo not drawn) [Compound C80, 7′-cyclopentyl-2′-((3-fluoro-4-(piperazin-1-yl)phenyl)amino)-5′,7′-dihydrospiro[pyrrolidine-3,6′-pyrrolo[2,3-d]pyrimidine]-2,5-dione]
IC50 (CDK4-CYCLIND1): 0.0134 µM
IC50 (CDK6-CYCLIND3): 79.2 nM

CN1CCN(c2ccc(Nc3ncc4c(n3)N(C3CCCC3)C3(CC(=O)NC3=O)C4)cc2F)CC1 (stereo not drawn) [Compound C81, 7′-cyclopentyl-2′-((3-fluoro-4-(4-methylpiperazin-1-yl)phenyl)amino)-5′,7′-dihydrospiro[pyrrolidine-3,6′-pyrrolo[2,3-d]pyrimidine]-2,5-dione]
IC50 (CDK4-CYCLIND1): 0.0162 µM
IC50 (CDK6-CYCLIND3): 73.3 nM

CC(C)N1CCN(c2ccc(Nc3ncc4c(n3)N(C3CCCC3)C3(CC(=O)NC3=O)C4)cc2F)CC1 (stereo not drawn) [Compound C82, 7′-cyclopentyl-2′-((3-fluoro-4-(4-isopropylpiperazin-1-yl)phenyl)amino)-5′,7′-dihydrospiro[pyrrolidine-3,6′-pyrrolo[2,3-d]pyrimidine]-2,5-dione]
IC50 (CDK4-CYCLIND1): 0.0222 µM
IC50 (CDK6-CYCLIND3): 124 nM

O=C1CC2(Cc3cnc(Nc4ccc(N5CCNCC5)nc4)nc3N2C2CCCC2)C(=O)N1 (stereo not drawn) [Compound C83, 7′-cyclopentyl-2′-((6-(piperazin-1-yl)pyridin-3-yl)amino)-5′,7′-dihydrospiro[pyrrolidine-3,6′-pyrrolo[2,3-d]pyrimidine]-2,5-dione]
IC50 (CDK4-CYCLIND1): 0.0516 µM
IC50 (CDK6-CYCLIND3): 168 nM

CN1CCN(c2ccc(Nc3ncc4c(n3)N(C3CCCC3)C3(CC(=O)NC3=O)C4)cn2)CC1 (stereo not drawn) [Compound C84, 7′-cyclopentyl-2′-((6-(4-methylpiperazin-1-yl)pyridin-3-yl)amino)-5′,7′-dihydrospiro[pyrrolidine-3,6′-pyrrolo[2,3-d]pyrimidine]-2,5-dione]
IC50 (CDK4-CYCLIND1): 0.0399 µM
IC50 (CDK6-CYCLIND3): 173 nM

CC(C)N1CCN(c2ccc(Nc3ncc4c(n3)N(C3CCCC3)C3(CC(=O)NC3=O)C4)cn2)CC1 (stereo not drawn) [Compound C85, 7′-cyclopentyl-2′-((6-(4-isopropylpiperazin-1-yl)pyridin-3-yl)amino)-5′,7′-dihydrospiro[pyrrolidine-3,6′-pyrrolo[2,3-d]pyrimidine]-2,5-dione]
IC50 (CDK4-CYCLIND1): 0.0489 µM
IC50 (CDK6-CYCLIND3): 214 nM

O=C1CC2(Cc3cnc(Nc4ccc(N5CCOCC5)c(F)c4)nc3N2C2CCCC2)C(=O)N1 (stereo not drawn) [Compound C86, 7′-cyclopentyl-2′-((3-fluoro-4-morpholinophenyl)amino)-5′,7′-dihydrospiro[pyrrolidine-3,6′-pyrrolo[2,3-d]pyrimidine]-2,5-dione]
IC50 (CDK4-CYCLIND1): 0.101 µM
IC50 (CDK6-CYCLIND3): 461 nM

CN1CCN(c2ccc(Nc3ncc4c(n3)N(C3CCCC3)C3(CC(=O)NC3=O)C4)c(F)c2)CC1 (stereo not drawn) [Compound C87, 7′-cyclopentyl-2′-((2-fluoro-4-(4-methylpiperazin-1-yl)phenyl)amino)-5′,7′-dihydrospiro[pyrrolidine-3,6′-pyrrolo[2,3-d]pyrimidine]-2,5-dione]
IC50 (CDK4-CYCLIND1): 14.9 µM
IC50 (CDK6-CYCLIND3): 78100 nM

CN(C)CCOc1ccc(Nc2ncc3c(n2)N(C2CCCC2)C2(CC(=O)NC2=O)C3)cn1 (stereo not drawn) [Compound C88, 7′-cyclopentyl-2′-((6-(2-(dimethylamino)ethoxy)pyridin-3-yl)amino)-5′,7′-dihydrospiro[pyrrolidine-3,6′-pyrrolo[2,3-d]pyrimidine]-2,5-dione]
IC50 (CDK4-CYCLIND1): 0.097 µM
IC50 (CDK6-CYCLIND3): 359 nM

CN(C)CCOc1ccc(Nc2ncc3c(n2)N(C2CCCC2)C2(CC(=O)NC2=O)C3)cc1 (stereo not drawn) [Compound C89, 7′-cyclopentyl-2′-((4-(2-(dimethylamino)ethoxy)phenyl)amino)-5′,7′-dihydrospiro[pyrrolidine-3,6′-pyrrolo[2,3-d]pyrimidine]-2,5-dione]
IC50 (CDK4-CYCLIND1): 0.143 µM
IC50 (CDK6-CYCLIND3): 562 nM

O=C1CC2(Cc3cnc(Nc4ccc(OCCN5CCCC5)nc4)nc3N2C2CCCC2)C(=O)N1 (stereo not drawn) [Compound C90, 7′-cyclopentyl-2′-((6-(2-(pyrrolidin-1-yl)ethoxy)pyridin-3-yl)amino)-5′,7′-dihydrospiro[pyrrolidine-3,6′-pyrrolo[2,3-d]pyrimidine]-2,5-dione]
IC50 (CDK4-CYCLIND1): 0.072 µM
IC50 (CDK6-CYCLIND3): 255 nM

O=C1CC2(Cc3cnc(Nc4ccc(OCCN5CCCC5)c(F)c4)nc3N2C2CCCC2)C(=O)N1 (stereo not drawn) [Compound C91, 7′-cyclopentyl-2′-((3-fluoro-4-(2-(pyrrolidin-1-yl)ethoxy)phenyl)amino)-5′,7′-dihydrospiro[pyrrolidine-3,6′-pyrrolo[2,3-d]pyrimidine]-2,5-dione]
IC50 (CDK4-CYCLIND1): 0.0554 µM
IC50 (CDK6-CYCLIND3): 239 nM

CN(C)CCOc1ccc(Nc2ncc3c(n2)N(C2CCCC2)C2(CC(=O)NC2=O)C3)nc1 (stereo not drawn) [Compound C92, 7′-cyclopentyl-2′-((5-(2-(dimethylamino)ethoxy)pyridin-2-yl)amino)-5′,7′-dihydrospiro[pyrrolidine-3,6′-pyrrolo[2,3-d]pyrimidine]-2,5-dione]
IC50 (CDK4-CYCLIND1): 0.0831 µM
IC50 (CDK6-CYCLIND3): 95.5 nM

O=C1CC2(Cc3cnc(Nc4ccc(C5=CCNCC5)cn4)nc3N2C2CCCC2)C(=O)N1 (stereo not drawn) [Compound C93, 7′-cyclopentyl-2′-((1′,2′,3′,6′-tetrahydro-[3,4′-bipyridin]-6-yl)amino)-5′,7′-dihydrospiro[pyrrolidine-3,6′-pyrrolo[2,3-d]pyrimidine]-2,5-dione]
IC50 (CDK4-CYCLIND1): 6.84 µM
IC50 (CDK6-CYCLIND3): 31800 nM

CC(C)N1CC=C(c2ccc(Nc3ncc4c(n3)N(C3CCCC3)C3(CC(=O)NC3=O)C4)nc2)CC1 (stereo not drawn) [Compound C94, 7′-cyclopentyl-2′-((1′-isopropyl-1′,2′,3′,6′-tetrahydro-[3,4′-bipyridin]-6-yl)amino)-5′,7′-dihydrospiro[pyrrolidine-3,6′-pyrrolo[2,3-d]pyrimidine]-2,5-dione]
IC50 (CDK4-CYCLIND1): 0.0462 µM
IC50 (CDK6-CYCLIND3): 45.6 nM

O=C1NCCC12Cc1cnc(Nc3ccc(N4CCC(N5CCOCC5)CC4)cc3)nc1N2C1CCCC1 (stereo not drawn) [Compound C95, 7′-cyclopentyl-2′-((4-(4-morpholinopiperidin-1-yl)phenyl)amino)-5′,7′-dihydrospiro[pyrrolidine-3,6′-pyrrolo[2,3-d]pyrimidin]-2-one]
IC50 (CDK4-CYCLIND1): 0.273 µM
IC50 (CDK6-CYCLIND3): 993 nM

O=C1NCCC12Cc1cnc(Nc3ccc(N4CCC(N5CCOCC5)CC4)nc3)nc1N2C1CCCC1 (stereo not drawn) [Compound C96, 7′-cyclopentyl-2′-((6-(4-morpholinopiperidin-1-yl)pyridin-3-yl)amino)-5′,7′-dihydrospiro[pyrrolidine-3,6′-pyrrolo[2,3-d]pyrimidin]-2-one]
IC50 (CDK4-CYCLIND1): 0.142 µM
IC50 (CDK6-CYCLIND3): 488 nM

O=C1NCCC12Cc1cnc(Nc3ccc(N4CCC(N5CCOCC5)CC4)c(F)c3)nc1N2C1CCCC1 (stereo not drawn) [Compound C97, 7′-cyclopentyl-2′-((3-fluoro-4-(4-morpholinopiperidin-1-yl)phenyl)amino)-5′,7′-dihydrospiro[pyrrolidine-3,6′-pyrrolo[2,3-d]pyrimidin]-2-one]
IC50 (CDK4-CYCLIND1): 0.0747 µM
IC50 (CDK6-CYCLIND3): 287 nM

CN1CCN(c2ccc(Nc3ncc4c(n3)N(C3CCCC3)C(=O)C43CCNC3=O)nc2)CC1 (stereo not drawn) [Compound C100, 7′-cyclopentyl-2′-((5-(4-methylpiperazin-1-yl)pyridin-2-yl)amino)spiro[pyrrolidine-3,5′-pyrrolo[2,3-d]pyrimidine]-2,6′(7′H)-dione]
IC50 (CDK4-CYCLIND1): 13.7 µM
IC50 (CDK6-CYCLIND3): 33400 nM

CN1CCN(c2ccc(Nc3ncc4c(n3)N(C3CCCC3)C(=O)C43CCNC3=O)cc2)CC1 (stereo not drawn) [Compound C101, 7′-cyclopentyl-2′-((4-(4-methylpiperazin-1-yl)phenyl)amino)spiro[pyrrolidine-3,5′-pyrrolo[2,3-d]pyrimidine]-2,6′(7′H)-dione]
IC50 (CDK4-CYCLIND1): 21 µM
IC50 (CDK6-CYCLIND3): 43400 nM
